Experiments:
Format in all cases: cell-based, human
[1] = system: A549 lung cancer cells; assay: Matrigel transwell invasion of A549 cells; details: A549, 5-40 μM for 24 hr, 12 or 24 hr, especially 40 μM
Protocol: The 24-well kit is used for analyzing lung cancer cell invasion. The kit is prepared by injecting Matrigel (3 mg/ml-well, BD science) into the upper layer of the kit, to be placed in an incubator for 24 hr and, then, process solidification.
At first, lung cancer cells A549 are cultured as described in state-of-use 1. After being washed down with tripsin, the cells are replanted in a 6-well plate at a seeding density of 2×10^5 cells/cm^2 for 24 hr for attachment. After being added into media having concentrations of 0, 5, 10 and 40 μM of Leader 1 for 24 hr, the cells are rinsed with PBS and, then, dropped down with tripsin. The cells are loaded into centrifuge tubes for centrifugal rotation at a speed of 1280 rpm for 3 min to remove supernatant. Residual serum is slowly removed by washing with PBS. Then, centrifugal rotations are processed at a speed of 1280 rpm for 3 min. The cells are added at a density of 2×10^5 cells/cm^2 into culture media, where the media are located at the upper layer and injected with a 200 μl solution containing only 0.1% fetal bovine serum. Another media are located at the lower layer and contain 20% fetal bovine serum. The kit is put in an incubator to be observed after 12 or 24 hr.
(§1) The kit is soaked in methanol and stayed still for 20 min to be dried afterwards. Then, the kit is soaked in Gimsa to be dyed for 20 min. […]

[2] = system: A549 lung cancer cells; assay: Transwell migration of A549 cells; details: A549, 5-40 μM for 24 hr, with or without TNF-α induction, 12 or 24 hr; especially 40 μM
Protocol: 24-well transwell kits (Millipore Co.) are used for analyzing lung cancer cell migration.
At first, lung cancer cells A549 are cultured as described in state-of-use 1. After being washed down with tripsin, the cells are replanted in a 12-well plate at a seeding density of 2×10^5 cells/cm^2 for 24 hr for attachment. After being added into media having concentrations of 0, 5, 10 and 40 μM of Leader 1 for 24 hr, the cells are rinsed with PBS and, then, dropped down with tripsin. The cells are loaded into centrifuge tubes for centrifugal rotation at a speed of 1280 rpm for 3 min to remove supernatant. Residual serum is removed by slow-washing with PBS. Then, centrifugal rotations are processed at a speed of 1280 rpm for 3 min. The cells are added into culture media at a density of 2×10^5 cells/cm^2, where the media are located at an upper layer of the kit and injected with a 200 μl solution containing only 0.1% fetal bovine serum. Another media are located at a lower layer of the kit and containing 20% fetal bovine serum (induced or not induced with TNF-α). The kit having the two layers of media is put in an incubator to be observed after 12 or 24 hr.
as §1

[3] = system: A549 lung cancer cells; assay: Wound healing of A549 cells; details: A549, 5-40 μM, observed at 0, 12, 24 or 48 hr; especially 40 μM
Protocol: (§2) The present invention selects a human lung cancer cell, A549, for exploring lung cancer cell metastasis. For culturing A549, the A549 cells grown in 75 T flask are replanted in a 10 square-centimeter (cm^2) dish at a seeding density of 2×10^5 cells per square-centimeter (cells/cm^2) to be cultured at 37 Celsius degrees (° C.) in an incubator having 5% carbon dioxide (CO2). The culture medium used is Ham's F12 (which is recommended by Bioresources Collection and Research Center (BCRC), Taiwan, and American Type Culture Center (ATCC)) and is added with extra 10% fetal bovine serum. State-of-Use 2: Preparing Extracts of Solid-State Cultivated Antrodia cinnamomea Mycelium
At first, lung cancer cells A549 are cultured as described in state-of-use 1. After being washed down with tripsin, the cells are replanted in a 12-well plate at a seeding density of […] for 24 hr for attachment. Then, a wound line is made in each well. After floating part of the cells are removed by being slight-washed with PBS, the cells are added to culture media having concentrations of 0, 5, 10, 20 and 40 μM of Leader 1 for observation at time points of 0, 12, 24 or 48 hr to be photographed as records, where a medium dosed with 0 μM of DMSO is used as a control group.

[4] = system: related proteases and proteins that promote metastasis (p-Akt, E-cadherin, MMP-2,9, TIMP-1); assay: Western blot of metastasis-related proteases and proteins in lung cancer cells; details: β-actin as control
Protocol: After total proteins of the cell are obtained, an equivalent amount of proteins are added to 8-10% gradient electrophoresis gel wells at a current of 80 V and 300 mA for 240 min for separating the total proteins. The total proteins sorted according to their sizes are blotted on a polyvinylidene difluoride (PVDF) membrane at a condition using a 100 V current for 2 hr. Then, the PVDF membrane is reacted with a blocking buffer for 1 hr. Therein, the blocking buffer contains 10% w/v skim milk powder in a TBS-T buffer, and the TBS-T buffer contains a TBS buffer having 0.1% Tween 20.
Thereafter, the PVDF membrane is immersed in an antibody solution of actin (Cell signaling Co.); an antibody solution of p-Akt or protein kinase B (1:1000, Cell signaling Co.); an antibody solution of E-cadherin (1:1000, Cell signaling Co.); an antibody solution of MMP-2,9 in matrix metalloproteinase (1:1000, Santa Cruz Co.); and an antibody solution of TIMP-1 (1:1000, Cell signaling Co.). […]
Then, the PVDF membrane is immersed in an anti-mouse secondary antibody solution having horseradish peroxidase and an anti-rabbit secondary antibody solution for reaction at a room temperature for 1˜2 hr. […] Then, an enhanced chemiluminescene (ECL) regent is used to detect fluorescence intensity, where β-actin protein is used as a control group of expression for statistical mapping with sigma plot 10.0.

[5] = system: matrix metalloproteinase (MMP-2, MMP-9); assay: Gelatin zymography of gelatinase activity in A549 cells; details: A549, 5-40 μM for 24 hr; especially 40 μM
Protocol: Electrophoresis is used to detect hydrolytic enzymes. Gelatin zymography is used to analyze activities of gelatinases (MMP-2, MMP-9) in matrix metalloproteinase (MMP) of lung cancer cells.
(§3) At first, lung cancer cells A549 are cultured as described in state-of-use 1. After being washed down with tripsin, the cells are replanted in a 12-well plate at a seeding density of 2×10^5 cells/cm^2 for 24 hr for attachment. Then, the kit is rinsed with PBS two times. After being added into media having concentrations of 0, 5, 10 and 40 μM of Leader 1 for 24 hr, the cells are added into media having 1% fetal bovine serum for 24 hr for obtaining culture media containing the cells. The kit is put into an Eppendorf centrifuge tube for centrifugal rotation at a 1250 rpm speed for 10 min. Then, the supernatant is taken out to be stored at −20° C.
An equivalent amount of the supernatant is added into 8%-gradient colloidal wells of gel (SDS-PAGE, containing 1 mg/ml gelatin) with a 6-times MMP dye. A running buffer is added and reaction stops after 45 kD of a MMP marker is resolved into the gel with a current of 80 V and 300 mA.
(§4) The gel is taken out for reaction in a zymography renaturing buffer at a 35 rpm speed. The reaction is done for 2 times at a room temperature and it takes 30 min for each time. […]

[6] = system: urokinase-type plasminogen activator (uPA); assay: Casein-plasminogen zymography of uPA activity in A549 cells; details: A549, 5-40 μM for 24 hr; especially 40 μM
Protocol: Electrophoresis is used for detecting hydrolytic enzymes. The part regarding plasminogen in casein-zymography is used for analyzing activity of urokinase-type plasminogen activator (uPA) of lung cancer cells, where uPA would decompose plasminogen into plasmin.
as §3
An equivalent amount of the supernatant is added into 8%-gradient colloidal wells of gel (containing 15 μl/ml plasminogen and 1 mg/ml gelatin) with a 6-times MMP dye. A running buffer is added and reaction stops after 45 kD of a MMP marker is resolved into the gel with a current of 80 V and 300 mA.
as §4

[7] = system: A549 lung cancer cells; assay: MTT survival rate of A549 cells; details: A549, 0~40 μM, 24 hr
Protocol: as §2
At first, A549 cells are cultured as described in state-of-use 1. After being washed with tripsin, the cells are replanted for 24 hr in a dish having 24 wells at a seeding density of 2×10^5 cells/cm^2. In Table 1, Leader 1 having a concentration of 0, 5, 10, or 40 μM is cultured for 24 hr to be applied to A549, where Leader 1 having 0 μM is added with DMSO to be used as a control group. […] Then, the cell membrane and the blue-violet crystals are dissolved with DMSO to acquire light-absorbance rates with a wavelength of 570 nm for forming a statistical diagram by using sigma plot 10.0.

## COc1cc(C)c(OC)c(OC)c1O [Leader 1, 2,3,6-trimethoxy-4-methylphenol]
[1]
  suppressing invasion of lung cancer cells: shows ability on suppressing invasion of lung cancer cells
[2]
  suppressing migration of lung cancer cells: shows activity on suppressing migration of lung cancer cells
[3]
  suppressing wound healing of lung cancer cells: shows its ability on suppressing wound healing of lung cancer cells
[4]
  suppressing related proteases and proteins that promote metastasis of lung cancer cells: shows ability on suppressing related proteases and proteins that promote metastasis of lung cancer cells
[5]
  suppressing matrix metalloproteinase (MMP-2, MMP-9) activity of lung cancer cells: shows ability on suppressing matrix metalloproteinase (MMP-2, MMP-9) activity of lung cancer cells
[6]
  suppressing plasminogen activator of lung cancer cells: shows activity on suppressing plasminogen activator of lung cancer cells
[7]
  survival rate of lung cancer cells (cytotoxicity): no cytotoxicity to lung cancer cells

From patent US9198942B1, “Method of preparing bioactive compound from solid-state cultivated Antrodia cinnamomea mycelium for anti-metastasis against lung cancer cells” (TAIWAN LEADER BIOTECH CORP., priority 2014, dated 2015)
